In brackets after ≈: the same amount, converted by molar mass. Read-outs that look alike come from different tables or passages of the source.
How the values were obtained:
[1] = metabolic stability assay, mouse microsomes; conditions: Table S4
[2] = metabolic stability assay, human microsomes; conditions: second microsome column of Table S4, head prints (M); mouse and human microsomes
E. ae. CIP 106754 = assay: MIC assay; assay type: cell-based, Enterobacter aerogenes; conditions: Klebsiella aerogenes, CIP106754, read-out: MIC E. ae. CIP 106754
Experimental: (§1) All cystobactamids were evaluated in MIC-assays on a panel of representative ESKAPE strains with focus on A. baumannii (Tables 1 and 2). Compared to our previous work[10],[17],[18], we specifically included more challenging test strains with known resistances against gyrase inhibitors.
(§2) 2.1 Materials and Methods
(§3) Strains were cultivated according to standard procedures. Bacterial cryo-cultures were
(§4) resuspended into fresh MHBII (cation adjusted) medium. The resuspension
(§5) assay plate (Corning, #3788).
(§6) in parallel as a positive control. […]

E. faec. DSM-17050 (VRE) = assay: MIC assay; assay type: cell-based, Enterococcus faecium
Experimental: as §1, §2, §3, §4, §5, §6

[3] = for T1/2 PLASMA (H): human plasma; for T1/2 PLASMA (M): mouse plasma
Experimental: 2.1 Materials and Methods […]
Determination of in vitro ADME properties
7, 8, 11 and 42. All samples were analysed via HPLC -MS/MS.
HPLC-MS/MS analysis of cystobactamids
AB Sciex QTrap 6500plus mass spectrometer. LC conditions were as follows: column:
Samples were run under acidic
For plasma stability experiments, samples were procured from commercial sources.
Human plasma was obtained from Antibodies-online (catalog no. ABIN5706569), and mouse plasma was obtained from Tebubio (catalog no. D408-04-0050).
The methods were performed in accordance with relevant guidelines and regulations and approved by the Helmholtz Centre for Infection Research. […]

P. ae. PA14 = assay: MIC assay; assay type: cell-based; conditions: Pseudomonas aeruginosa
Experimental: as §1, §2, §3, §4, §5, §6

E. cloacae ATCC BAA-2468 = assay: MIC assay; assay type: cell-based
Experimental: as §1, §2, §3, §4, §5, §6

S. aur. ATCC-29213 = assay: MIC assay; assay type: cell-based; conditions: Staphylococcus aureus
Experimental: as §1, §2, §3, §4, §5, §6

A. baum. CIP-107292 = assay: MIC assay; assay type: cell-based
Experimental: as §1, §2, §3, §4, §5, §6

A. baum. ATCC BAA-1710 = assay: MIC assay; assay type: cell-based
Experimental: as §1, §2, §3, §4, §5, §6

P. ae. PA14ΔmexAB = assay: MIC assay; assay type: cell-based; conditions: Pseudomonas aeruginosa, read-out: MIC P. ae. PA14ΔmexAB
Experimental: as §1, §2, §3, §4, §5, §6

K. pneum. R-1525 = assay: MIC assay; assay type: cell-based
Experimental: as §1, §2, §3, §4, §5, §6

[4] = system: S. pneum. DSM-11865 (PRSP); assay: MIC assay; assay type: cell-based
Experimental: as §1, §2, §3, §4, §5, §6

A. baum. DSM-30008 = assay: MIC assay; assay type: cell-based; conditions: Acinetobacter baumannii
Experimental: as §1, §2, §3, §4, §5, §6

E. coli ATCC-25922 = assay: MIC assay; assay type: cell-based; conditions: Escherichia coli
Experimental: as §1, §2, §3, §4, §5, §6

A. baum. R835 = assay: MIC assay; assay type: cell-based
Experimental: as §1, §2, §3, §4, §5, §6

K. pneum. KP10581 = assay: MIC assay; assay type: cell-based
Experimental: as §1, §2, §3, §4, §5, §6

E. coli LM705 = assay: MIC assay; assay type: cell-based; conditions: Escherichia coli, LM705, read-out: MIC E. coli LM705
Experimental: as §1, §2, §3, §4, §5, §6

K. pneum. CIP-104298 = assay: MIC assay; assay type: cell-based; conditions: Klebsiella pneumoniae
Experimental: as §1, §2, §3, §4, §5, §6

A. baum. CIP-105742 = assay: MIC assay; assay type: cell-based
Experimental: as §1, §2, §3, §4, §5, §6

ESKAPE strains = assay: MIC-assays on a panel of representative ESKAPE strains, summary in words; assay type: cell-based; conditions: summary of the MIC tables
Experimental: as §1, §2, §3, §4, §5, §6

[5] = PK study in mice after intravenous administration; assay type: in vivo, CD-1 mice; conditions: male, plasma
Experimental: and approved by the Helmholtz Centre for Infection Research.
Germany), 4-weeks-old, were used. The animal studies were conducted in accordance […]
Verbraucherschutz und Lebensmittelsicherheit, Oldenburg, Germany.
Then, plasma was transferred into a new Eppendorf tube and stored at -80°C until analysis.
Bioanalysis of pharmacokinetic and pharmacodynamic samples […]
mouse plasma from CD-1 mice. Glipizide was used as an internal standard. In addition, […]
mixer. […] Supernatants were […]
transferred to standard HPLC-glass vials. Samples were analyzed using LC-MS/MS conditions as described above. Peaks of PK samples were quantified using the calibration curve using AB Sciex Multiquant Software 3.0. The accuracy of the calibration curve was determined using QCs independently prepared. PK parameters were determined using a non-compartmental analysis with PKSolver.23
Figure S1: Plasma concentration curves for cystobactamid 42. Error bars were determined via standard deviation of two cassette experiments per compound (n=2). […]
(1 picture or pasted object on this page, not shown here)

[6] = Enterococcus; read-out: MIC E. faec. DSM-17050 (VRE)
[7] = PA14, reference strain, read-out: MIC P. ae. PA14
[8] = Enterobacter cloacae, ATCCBAA2468; read-out: MIC E. cloacae ATCC BAA-2468
[9] = ATCC29213, reference strain, read-out: MIC S. aur. ATCC-29213
[10] = Acinetobacter baumannii, CIP107292; read-out: MIC A. baum. CIP-107292
[11] = Acinetobacter baumannii, ATCCBAA1710; read-out: MIC A. baum. ATCC BAA-1710
[12] = Klebsiella pneumoniae; read-out: MIC K. pneum. R-1525
[13] = Streptococcus pneumoniae; read-out: MIC S. pneum. DSM-11865 (PRSP)
[14] = DSM30008, reference strain, read-out: MIC A. baum. DSM-30008
[15] = ATCC25922, reference strain, read-out: MIC E. coli ATCC-25922
[16] = Acinetobacter baumannii; read-out: MIC A. baum. R835
[17] = Klebsiella pneumoniae; read-out: MIC K. pneum. KP10581
[18] = CIP104298, reference strain, read-out: MIC K. pneum. CIP-104298
[19] = Acinetobacter baumannii, CIP105742; read-out: MIC A. baum. CIP-105742

SMILES | T1/2 MICROSOMES (M) [1] | T1/2 MICROSOMES (M) [2] | MIC (E. ae. CIP 106754) | MIC (E. faec. DSM-17050 (VRE); [6]) | T1/2 PLASMA (H) [3] | T1/2 PLASMA (M) [3] | MIC (P. ae. PA14; [7]) | MIC (E. cloacae ATCC BAA-2468; [8]) | MIC (S. aur. ATCC-29213; [9]) | MIC (A. baum. CIP-107292; [10]) | MIC (A. baum. ATCC BAA-1710; [11]) | MIC (P. ae. PA14ΔmexAB) | MIC (K. pneum. R-1525; [12]) | MIC [4, 13] | MIC (A. baum. DSM-30008; [14]) | MIC (E. coli ATCC-25922; [15]) | MIC (A. baum. R835; [16]) | MIC (K. pneum. KP10581; [17]) | MIC (E. coli LM705) | MIC (K. pneum. CIP-104298; [18]) | other results
C#CC[C@H](NC(=O)c1ccc(NC(=O)c2ccc(C#N)cc2)cc1)C(=O)Nc1ccc(C(=O)Nc2ccc(C(=O)Nc3ccc(C(=O)O)cc3)c(F)c2OC(C)C)cc1 [Cmpd. 4] | > 1 h | > 1 h | > 64 µg/mL | 4 µg/mL (≈ 5.03 µM) | > 4 h | > 4 h | > 64 µg/mL | > 64 µg/mL | > 64 µg/mL | > 8 µg/mL | > 8 µg/mL | > 64 µg/mL | > 64 µg/mL | > 64 µg/mL | 0.06 µg/mL (≈ 0.0755 µM) | 4 µg/mL (≈ 5.03 µM) | > 8 µg/mL | > 64 µg/mL | > 64 µg/mL | > 64 µg/mL | MIC (A. baum. CIP-105742; [19]): 0.25 to 0.5 µg/mL (≈ 0.315 to 0.629 µM)
C#CC[C@H](NC(=O)c1ccc(NC(=O)c2ccc(C#N)cc2)cc1)C(=O)Nc1ccc(C(=O)Nc2ccc(C(=O)Nc3ccc(C(=O)O)cc3)c(N)c2OC(C)C)cc1 [Cmpd. 7] | > 1 h | > 1 h | > 64 µg/mL | > 64 µg/mL | > 4 h | > 4 h |  | > 64 µg/mL | > 64 µg/mL | > 64 µg/mL | > 64 µg/mL |  | > 64 µg/mL | 0.2 µg/mL (≈ 0.253 µM) |  | 0.005 µg/mL (≈ 0.00631 µM) | > 64 µg/mL | > 64 µg/mL | > 64 µg/mL |  | 
C#CC[C@H](NC(=O)c1ccc(NC(=O)c2ccc(C#N)cc2)cc1)C(=O)Nc1ccc(C(=O)Nc2ccc(C(=O)Nc3ccc(C(=O)O)cc3)c(O)c2CC(C)C)cc1 [Cmpd. 11] | > 1 h | > 1 h | > 64 µg/mL | < 0.03 µg/mL | > 4 h | > 4 h | > 64 µg/mL | > 64 µg/mL | 16 to 32 µg/mL (≈ 20.2 to 40.5 µM) | > 64 µg/mL | 0.25 µg/mL (≈ 0.316 µM) | > 64 µg/mL | > 64 µg/mL | > 64 µg/mL | 1 µg/mL (≈ 1.26 µM) | < 0.03 µg/mL | > 64 µg/mL | 8 µg/mL (≈ 10.1 µM) | > 64 µg/mL | > 64 µg/mL | MIC (A. baum. CIP-105742; [19]): < 0.03 µg/mL
C#CC[C@H](NC(=O)c1ccc(NC(=O)c2ccc(C#N)cc2)cc1)C(=O)Nc1ccc(NC(=O)c2ccc(C(=O)Nc3ccc(C(=O)O)cc3)c(O)c2OC(C)C)cc1 [Cmpd. 42] | > 1 h | > 1 h | 1 µg/mL (≈ 1.26 µM) |  | > 4 h | > 4 h |  |  |  |  |  | < 0.03 µg/mL |  |  |  |  |  |  | 0.06 µg/mL (≈ 0.0757 µM) |  | MIC (E. faec. DSM-17050 (VRE); Enterococcus, read-out: MIC E. faec. DSM-17050 (VRE)): < 0.03 µg/mL; antibacterial activity on the pathogen panel, in words (ESKAPE strains): exceptional activity; clearance ([5]; CD-1, mouse, iv, 1 mg/kg): 17.9 ± 12.3 mL/min/kg; C0 ([5]; CD-1, mouse, iv, 1 mg/kg, concentration at t = 0 h, CD-1 mice, 1 mg/kg IV): ~2200 ng/mL; Vd ([5]; CD-1, mouse, iv, 1 mg/kg, volume of distribution, CD-1 mice, 1 mg/kg IV, read-out: Vz): ~1.4 L/kg; AUC(0-t) ([5]; mouse, CD-1 mice, 1 mg/kg IV): 1210 ± 832 ng·h/mL; half-life ([5]; mouse, CD-1 mice, 1 mg/kg IV): 0.88 ± 0.1 h; MIC (P. ae. PA14; PA14, read-out: MIC P. ae. PA14): 4 µg/mL (≈ 5.05 µM); MIC (E. cloacae ATCC BAA-2468; Enterobacter cloacae, ATCCBAA2468, read-out: MIC E. cloacae ATCC BAA-2468): 0.25 µg/mL (≈ 0.315 µM); MIC (S. aur. ATCC-29213; ATCC29213, read-out: MIC S. aur. ATCC-29213): 0.06 µg/mL (≈ 0.0757 µM); MIC (A. baum. CIP-107292; Acinetobacter baumannii, CIP107292, read-out: MIC A. baum. CIP-107292): 0.05 µg/mL (≈ 0.0631 µM); MIC (A. baum. ATCC BAA-1710; Acinetobacter baumannii, ATCCBAA1710, read-out: MIC A. baum. ATCC BAA-1710): 0.03 to 0.05 µg/mL (≈ 0.0378 to 0.0631 µM); MIC (K. pneum. R-1525; Klebsiella pneumoniae, read-out: MIC K. pneum. R-1525): < 0.03 µg/mL; MIC ([4]; Streptococcus pneumoniae, read-out: MIC S. pneum. DSM-11865 (PRSP)): < 0.03 µg/mL; MIC (A. baum. DSM-30008; DSM30008, read-out: MIC A. baum. DSM-30008): 0.125 µg/mL (≈ 0.158 µM); MIC (E. coli ATCC-25922; ATCC25922, read-out: MIC E. coli ATCC-25922): < 0.03 µg/mL; MIC (A. baum. R835; Acinetobacter baumannii, read-out: MIC A. baum. R835): 0.5 µg/mL (≈ 0.631 µM); MIC (K. pneum. KP10581; Klebsiella pneumoniae, read-out: MIC K. pneum. KP10581): < 0.03 µg/mL; MIC (K. pneum. CIP-104298; CIP104298, read-out: MIC K. pneum. CIP-104298): < 0.03 µg/mL; MIC (A. baum. CIP-105742; Acinetobacter baumannii, CIP105742, read-out: MIC A. baum. CIP-105742): < 0.03 µg/mL
